Key:
Test in all cases: SelectScreen LanthaScreen Binding
Conditions in all cases: 1000 nM
[1] = molecular target: CLK4 (Homo sapiens, UniProt Q9HAZ1)
Procedure: (§1) 133 protein kinases and 7 lipid kinases were counterscreened, with 1938 used at 1 μM, using the Adapta, Lantha and Z-LYTE assays (SelectScreen Kinase Profiling Service; Thermofisher – experimental details of these assays can be found here: https://www.thermofisher.com/uk/en/home/industrial/pharma-biopharma/drug-discovery-development/target-and-lead-identification-and-validation/kinasebiology/kinase-activity-assays.html. The tree represention in KinMap[59] generated courtesy of Cell Signaling Technology, Inc. (www.cellsignal.com). mTORC1 (mTOR/RAPTOR/LST8) protein complex and ATM kinase and substrates were produced as previously described[57],[60]. Screening of 1938 was conducted using SuperSep Phos-Tag 50 μmol/l 100 x 100 x 6.6 mm 17-well (192-18001/199-18011) gels. For ATM assays, 100 nM ATM was incubated for 30 min at 30°C with 5 μM GST-p53 and 1 mM ATP, in the absence or presence of 200 μM 1938 in ATM Kinase Buffer (50 mM HEPES pH 7.5, 100 mM NaCl, 10% glycerol, 2 mM […], 5 mM MgCl2). As a positive control for ATM activation, the same reaction was carried out with 100 nM ATM/5 μM GST-p53/1 mM ATP in the presence of 100 nM Mre11-Rad50-Nbs1 (MRN) complex, a known activator of ATM[61]. For mTORC1 assays, 50 nM mTORC1 complex (mTOR/LST8/RAPTOR) was incubated for 3 h at 30°C with 15 μM 4E-BP1, 10 mM MgCl2 and 250 μM ATP, in the absence or presence of 200 μM 1938. As a ‘positive’ control, a higher concentration (150 nM) of mTORC1 complex (mTOR/LST8/RAPTOR) was incubated for 3 h at 30°C with 15 μM 4E-BP1, 10 mM MgCl2 and 250 μM ATP. Kinase reactions were quenched by addition of SDS-PAGE Loading Buffer (as per manufacturer’s instructions) and freezing at -20°C before being run on the Phos-tag gels at 150 V for 90 min. Gels were then stained using InstantBlue™ Coomassie, and quantified using BioRad Image Lab Software. Kinase assays were carried out in triplicate.

[2] = molecular target: T1, DMPK (Homo sapiens, UniProt Q09013)
T1 sequence (Q09013 1-629): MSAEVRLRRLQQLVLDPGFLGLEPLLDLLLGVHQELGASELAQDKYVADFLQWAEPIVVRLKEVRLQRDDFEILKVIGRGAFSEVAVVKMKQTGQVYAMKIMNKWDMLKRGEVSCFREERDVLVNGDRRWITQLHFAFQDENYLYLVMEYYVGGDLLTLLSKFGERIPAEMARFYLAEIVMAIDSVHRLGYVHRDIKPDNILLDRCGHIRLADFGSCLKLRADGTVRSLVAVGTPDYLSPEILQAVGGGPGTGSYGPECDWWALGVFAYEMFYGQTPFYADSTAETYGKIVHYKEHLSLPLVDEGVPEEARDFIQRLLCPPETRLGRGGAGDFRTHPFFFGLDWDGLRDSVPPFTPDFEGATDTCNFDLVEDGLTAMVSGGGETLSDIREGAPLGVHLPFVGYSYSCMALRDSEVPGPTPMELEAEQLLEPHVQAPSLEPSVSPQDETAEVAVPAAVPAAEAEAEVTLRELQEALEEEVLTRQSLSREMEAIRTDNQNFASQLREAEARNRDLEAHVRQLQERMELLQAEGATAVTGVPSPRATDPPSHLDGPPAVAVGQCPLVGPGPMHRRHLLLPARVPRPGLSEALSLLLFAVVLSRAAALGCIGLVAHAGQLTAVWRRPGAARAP
Procedure: as §1

[3] = molecular target: FGFR1 V561M (Homo sapiens, UniProt P11362, V561M)
Chain of FGFR1 V561M (P11362 22-822 V561M): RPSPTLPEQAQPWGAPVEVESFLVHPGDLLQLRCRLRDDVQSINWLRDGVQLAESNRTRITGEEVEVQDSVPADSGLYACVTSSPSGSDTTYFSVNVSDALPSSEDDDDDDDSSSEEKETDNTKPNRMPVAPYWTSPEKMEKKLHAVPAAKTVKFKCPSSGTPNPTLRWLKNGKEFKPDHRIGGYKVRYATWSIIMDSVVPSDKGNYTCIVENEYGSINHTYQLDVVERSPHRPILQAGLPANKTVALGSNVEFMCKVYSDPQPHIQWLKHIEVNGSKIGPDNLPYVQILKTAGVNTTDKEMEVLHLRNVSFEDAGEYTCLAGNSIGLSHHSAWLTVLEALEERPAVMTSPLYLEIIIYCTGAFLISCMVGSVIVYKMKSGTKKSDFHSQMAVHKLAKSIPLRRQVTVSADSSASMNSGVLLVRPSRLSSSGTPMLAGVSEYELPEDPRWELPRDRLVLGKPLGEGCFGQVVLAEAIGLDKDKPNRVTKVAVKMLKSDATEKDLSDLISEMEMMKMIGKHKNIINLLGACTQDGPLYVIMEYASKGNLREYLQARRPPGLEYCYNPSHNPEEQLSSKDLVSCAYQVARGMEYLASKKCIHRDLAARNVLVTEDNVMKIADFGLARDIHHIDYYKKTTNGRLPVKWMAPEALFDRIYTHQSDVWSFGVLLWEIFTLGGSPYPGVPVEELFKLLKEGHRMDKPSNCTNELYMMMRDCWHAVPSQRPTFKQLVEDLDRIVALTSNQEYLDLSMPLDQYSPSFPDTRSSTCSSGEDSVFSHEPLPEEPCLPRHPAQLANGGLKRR
Procedure: as §1

[4] = molecular target: T2, MAP4K3 (GLK) (Homo sapiens, UniProt Q8IVH8)
T2 sequence (Q8IVH8 1-894): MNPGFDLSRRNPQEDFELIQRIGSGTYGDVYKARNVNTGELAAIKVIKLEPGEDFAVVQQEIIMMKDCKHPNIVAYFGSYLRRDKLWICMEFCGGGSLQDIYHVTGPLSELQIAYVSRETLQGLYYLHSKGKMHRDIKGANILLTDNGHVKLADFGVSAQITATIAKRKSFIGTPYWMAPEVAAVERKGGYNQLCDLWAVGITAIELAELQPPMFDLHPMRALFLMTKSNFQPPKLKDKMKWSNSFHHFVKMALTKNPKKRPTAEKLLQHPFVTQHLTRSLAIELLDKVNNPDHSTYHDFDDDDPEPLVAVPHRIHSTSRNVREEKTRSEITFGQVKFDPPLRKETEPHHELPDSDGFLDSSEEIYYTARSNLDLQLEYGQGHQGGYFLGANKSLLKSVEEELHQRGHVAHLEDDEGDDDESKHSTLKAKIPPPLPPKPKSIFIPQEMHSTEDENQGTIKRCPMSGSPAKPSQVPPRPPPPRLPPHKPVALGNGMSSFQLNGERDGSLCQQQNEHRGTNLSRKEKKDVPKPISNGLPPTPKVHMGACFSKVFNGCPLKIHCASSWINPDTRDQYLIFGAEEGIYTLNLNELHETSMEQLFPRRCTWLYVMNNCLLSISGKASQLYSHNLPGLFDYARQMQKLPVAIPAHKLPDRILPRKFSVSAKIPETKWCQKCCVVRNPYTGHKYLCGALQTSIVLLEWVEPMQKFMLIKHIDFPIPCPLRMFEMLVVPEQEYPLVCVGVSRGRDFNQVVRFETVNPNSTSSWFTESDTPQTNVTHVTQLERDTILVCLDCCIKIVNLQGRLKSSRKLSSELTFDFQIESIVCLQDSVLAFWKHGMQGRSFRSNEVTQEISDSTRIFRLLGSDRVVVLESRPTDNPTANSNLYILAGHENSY
Procedure: as §1

[5] = molecular target: TNIK (Homo sapiens, UniProt Q9UKE5)
Chain of TNIK (Q9UKE5 whole entry): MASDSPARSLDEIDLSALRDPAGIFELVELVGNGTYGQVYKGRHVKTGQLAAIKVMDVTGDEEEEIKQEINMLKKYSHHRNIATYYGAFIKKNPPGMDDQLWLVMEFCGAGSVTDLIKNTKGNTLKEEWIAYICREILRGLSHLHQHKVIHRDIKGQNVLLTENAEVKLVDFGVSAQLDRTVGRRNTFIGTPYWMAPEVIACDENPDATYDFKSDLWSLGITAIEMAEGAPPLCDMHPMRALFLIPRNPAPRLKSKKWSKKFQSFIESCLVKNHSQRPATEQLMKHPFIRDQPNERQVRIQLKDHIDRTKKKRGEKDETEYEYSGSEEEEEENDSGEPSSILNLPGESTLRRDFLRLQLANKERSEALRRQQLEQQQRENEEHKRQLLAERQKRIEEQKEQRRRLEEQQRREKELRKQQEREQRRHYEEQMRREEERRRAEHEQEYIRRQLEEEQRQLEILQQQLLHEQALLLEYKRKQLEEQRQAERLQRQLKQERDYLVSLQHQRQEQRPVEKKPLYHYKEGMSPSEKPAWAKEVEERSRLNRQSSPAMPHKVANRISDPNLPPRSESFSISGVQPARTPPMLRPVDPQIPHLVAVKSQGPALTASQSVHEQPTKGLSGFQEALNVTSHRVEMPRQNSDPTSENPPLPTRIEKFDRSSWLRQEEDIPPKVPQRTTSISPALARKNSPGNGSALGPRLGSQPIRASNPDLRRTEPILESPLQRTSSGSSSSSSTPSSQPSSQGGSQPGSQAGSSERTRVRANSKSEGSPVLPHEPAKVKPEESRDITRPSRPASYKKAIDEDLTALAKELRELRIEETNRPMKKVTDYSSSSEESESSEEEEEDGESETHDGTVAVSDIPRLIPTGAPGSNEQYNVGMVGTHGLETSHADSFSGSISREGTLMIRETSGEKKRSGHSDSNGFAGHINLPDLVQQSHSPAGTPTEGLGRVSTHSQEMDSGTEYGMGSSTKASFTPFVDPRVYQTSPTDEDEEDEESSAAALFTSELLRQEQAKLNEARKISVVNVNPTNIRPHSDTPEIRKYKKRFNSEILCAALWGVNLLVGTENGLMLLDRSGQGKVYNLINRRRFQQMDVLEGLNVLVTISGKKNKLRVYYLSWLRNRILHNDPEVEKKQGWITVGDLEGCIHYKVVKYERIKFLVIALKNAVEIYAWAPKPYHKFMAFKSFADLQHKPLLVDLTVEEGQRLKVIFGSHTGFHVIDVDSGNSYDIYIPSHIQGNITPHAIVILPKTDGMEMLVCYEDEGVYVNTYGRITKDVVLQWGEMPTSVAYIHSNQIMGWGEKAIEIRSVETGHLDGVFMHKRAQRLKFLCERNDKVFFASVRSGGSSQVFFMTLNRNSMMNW
Procedure: as §1

Chain of CLK4 (Q9HAZ1 whole entry): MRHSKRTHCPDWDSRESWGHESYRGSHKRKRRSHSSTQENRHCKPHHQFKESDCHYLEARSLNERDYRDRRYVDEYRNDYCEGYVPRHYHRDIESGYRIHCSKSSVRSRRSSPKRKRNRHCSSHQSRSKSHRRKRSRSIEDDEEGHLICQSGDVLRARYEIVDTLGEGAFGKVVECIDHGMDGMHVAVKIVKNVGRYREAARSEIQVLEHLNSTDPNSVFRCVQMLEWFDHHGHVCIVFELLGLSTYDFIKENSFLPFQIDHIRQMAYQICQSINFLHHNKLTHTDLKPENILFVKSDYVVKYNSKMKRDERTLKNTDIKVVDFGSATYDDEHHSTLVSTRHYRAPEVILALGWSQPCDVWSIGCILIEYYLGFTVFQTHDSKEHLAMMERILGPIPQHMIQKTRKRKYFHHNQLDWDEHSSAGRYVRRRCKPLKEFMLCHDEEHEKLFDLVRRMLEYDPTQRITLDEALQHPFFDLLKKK

CCN1CCN(c2ccc(Nc3cc(Nc4cccc5c4N(C(C)=O)CC5)ccn3)cc2)CC1 [Compound 1938]
% Displacement Point 1 [1]: 1.72% | % Displacement Point 2 [1]: 6.61% | % Displacement mean [1]: 4% | % Displacement Point 1 [2]: 4.22% | % Displacement Point 2 [2]: 0.782% | % Displacement mean [2]: 2.5% | % Displacement Point 1 [3]: 8% | % Displacement Point 2 [3]: 8.43% | % Displacement mean [3]: 8% | % Displacement Point 1 [4]: -1.29% | % Displacement Point 2 [4]: 0.495% | % Displacement mean [4]: -0.396% | % Displacement Point 1 [5]: 23% | % Displacement Point 2 [5]: 25% | % Displacement mean [5]: 24%

Source: article PMC7614683, “A small molecule PI3Kα activator for cardioprotection and neuroregeneration” (Nature, 2023)
